The values that follow come from ChEMBL document CHEMBL1255197, “Surface plasmon resonance biosensor based fragment screening using acetylcholine binding protein identifies ligand efficiency hot spots (LE hot spots) by deconstruction of nicotinic acetylcholine receptor α7 ligands” (J Med Chem, 2010).

Assay [1] concerns the target T1, Acetylcholine-binding protein (Lymnaea stagnalis, UniProt P58154).
Description: Binding affinity to Lymnaea stagnalis His6-AChBP expressed in Bac-to-Bac baculovirus expression system by surface plasmon resonance biosensor assay
Assay [2] has as its target Neuronal acetylcholine receptor subunit alpha-7 (Homo sapiens, UniProt P36544). Kind of assay: biochemical.
Description: Displacement of [3H]-MLA from human alpha7 nAChR expressed in human SH-SY5Y cells
For assay [3], the target named is T1, Acetylcholine-binding protein. This is another data set of the same source.
Description: Displacement of [3H]epibatidine from Lymnaea stagnalis His6-AChBP expressed in Bac-to-Bac baculovirus expression system

T1 sequence (P58154 whole entry): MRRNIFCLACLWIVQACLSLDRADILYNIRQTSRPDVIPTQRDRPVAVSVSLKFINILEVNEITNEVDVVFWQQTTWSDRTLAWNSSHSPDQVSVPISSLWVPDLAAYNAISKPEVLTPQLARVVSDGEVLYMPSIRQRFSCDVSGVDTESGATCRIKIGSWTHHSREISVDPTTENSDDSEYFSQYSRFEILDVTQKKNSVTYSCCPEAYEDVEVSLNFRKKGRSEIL
Neuronal acetylcholine receptor subunit alpha-7, sequence (P36544 whole entry): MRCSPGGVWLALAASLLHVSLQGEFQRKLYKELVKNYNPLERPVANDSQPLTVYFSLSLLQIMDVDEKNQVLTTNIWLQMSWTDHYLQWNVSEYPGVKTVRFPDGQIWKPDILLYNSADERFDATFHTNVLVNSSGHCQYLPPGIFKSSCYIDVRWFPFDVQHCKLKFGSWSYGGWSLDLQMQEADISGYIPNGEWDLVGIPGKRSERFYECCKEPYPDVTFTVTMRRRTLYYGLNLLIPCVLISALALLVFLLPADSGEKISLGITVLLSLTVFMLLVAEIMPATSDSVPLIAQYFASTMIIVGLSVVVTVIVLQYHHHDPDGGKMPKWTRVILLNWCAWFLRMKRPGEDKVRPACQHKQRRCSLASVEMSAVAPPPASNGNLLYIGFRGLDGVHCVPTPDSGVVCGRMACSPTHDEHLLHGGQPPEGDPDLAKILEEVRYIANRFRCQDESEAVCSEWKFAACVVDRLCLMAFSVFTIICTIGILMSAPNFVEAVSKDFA

Regarding `O=C(Nc1ccc(Br)cc1)N[C@H]1CN2CCC1CC2`, in assay [1], the dissociation constant (Kd) (in general, a measure of binding affinity in units of concentration) was 4900 nM. Besides, the figures for the Ki in assay [2] and in assay [3] were 43.7 nM and 5130 nM, respectively.

As to `O=C(N[C@@H]1C2CCN(CC2)[C@H]1Cc1cccnc1)c1ccccc1`, the dissociation constant Kd in assay [1] is 219 nM. Besides, the Ki (as a rule, a measure of affinity in units of concentration, obtained from inhibition or displacement) in assay [3] was 240 nM.

Compound `O=C(Nc1ccc(Br)cc1)OCCCc1cccnc1` had a Kd in assay [1] of 50100 nM. In addition, the inhibitory constant (Ki) in assay [2] was 6920 nM; in assay [3] it was above 10000 nM.

Compound `CN(C)CCc1cccnc1` showed a Kd in assay [1] of 6030 nM. Besides, the Ki in assay [2] and in assay [3] was 3160 nM throughout.

For `O=C(Nc1ccc(Br)cc1)N[C@@H]1C2CCN(CC2)[C@H]1Cc1cccnc1`, in assay [1], binding was characterised by a dissociation constant (Kd) of 437 nM. Moreover, the inhibition constant (Ki) in assay [2] is 25.7 nM; in assay [3], 708 nM.

In turn, `O=C(Nc1ccccc1)N[C@H]1CN2CCC1CC2` gave a dissociation constant Kd in assay [1] of 18600 nM. The Ki in assay [2] was 110 nM; in assay [3] it was 5500 nM.

For the compound `N[C@H]1CN2CCC1CC2`, the dissociation constant Kd in assay [1] was 74100 nM. Besides, the inhibitory constant (Ki) in assay [2] was 6310 nM; in assay [3], 110000 nM.

Turning to `O=C(N[C@@H]1C2CCN(CC2)[C@H]1Cc1cccnc1)Oc1ccccc1`, binding in assay [1] was put at a Kd of 347 nM. Further, the inhibition constant Ki is 37.2 nM in assay [2] and 501 nM in assay [3].

As to `O=C(N[C@H]1CN2CCC1CC2)c1ccc(Cl)cc1` [PNU-282987], binding in assay [1] was put at a Kd of 3630 nM. For the same compound, the Ki is 24.5 nM in assay [2] and 2090 nM in assay [3].

`O[C@@H]1C2CCN(CC2)[C@H]1Cc1cccnc1` showed a dissociation constant (Kd) in assay [1] of 316 nM. Also, the Ki in assay [2] is 3310 nM; in assay [3], 251 nM.

Take `O=C(Nc1ccccc1)N[C@@H]1C2CCN(CC2)[C@H]1Cc1cccnc1`: binding in assay [1] was characterised by a dissociation constant (Kd) of 871 nM. Also, the figures for the Ki in assay [2] and in assay [3] were 28.8 nM and 562 nM, respectively.

Compound `O=C(Nc1ccccc1)O[C@H]1CN2CCC1CC2` had a Kd in assay [1] of 29500 nM. The compound also showed an inhibition constant Ki in assay [3] of 7940 nM.

`O=C(Nc1ccc(Br)cc1)O[C@H]1CN2CCC1CC2` gave a Kd in assay [1] of 4470 nM. Moreover, the figures for the Ki in assay [2] and in assay [3] were 38.9 nM and 3020 nM, respectively.

With `O=C(Nc1ccccc1)OCCCc1cccnc1`, the affinity in assay [1], expressed as Kd, was 741000 nM. Besides, the values for the Ki in assay [2] and in assay [3] were 14500 nM and 282000 nM, respectively.

`O=C(N[C@@H]1C2CCN(CC2)[C@H]1Cc1cccnc1)c1cc2ccccc2o1` [BRADANICLINE] gave a Kd in assay [1] of 20 nM. The Ki in assay [3] was 14.5 nM.

Turning to `O=C(Nc1ccccc1)O[C@@H]1C2CCN(CC2)[C@H]1Cc1cccnc1`, the Kd in assay [1] is 100 nM. Besides, the values for the Ki in assay [2] and in assay [3] were 18.6 nM and 61.7 nM, respectively.

In turn, `NCCc1cccnc1` gave a dissociation constant (Kd) in assay [1] of 148000 nM. For the same compound, the Ki in assay [2] is 8510 nM; in assay [3], 93300 nM.

For `O=C(N[C@@H]1C2CCN(CC2)[C@H]1Cc1cccnc1)c1cccs1`, in assay [1], binding was characterised by a dissociation constant (Kd) of 240 nM. The Ki in assay [2] is 43.7 nM; in assay [3], 148 nM.

For `N[C@@H]1C2CCN(CC2)[C@H]1Cc1cccnc1`, binding in assay [1] was characterised by a dissociation constant (Kd) of 550 nM. Moreover, the Ki in assay [2] was 2290 nM; in assay [3], 468 nM.
